Data taken from patent US12496348B2, “Small molecule target bromo/acetyl proteins and uses thereof” (DANA-FARBER CANCER INSTITUTE, INC., priority 2019, dated 2025).

Assays:
Type in all cases: cell-based
EP300 = EP300 (Homo sapiens (Human), UniProt Q09472); test: Western blot for EP300 degradation in Kelly NB cells; conditions: 8 and 16 hours, at 3 μM
Protocol: (§1) […] Whole cell lysates were collected using ice cold lysis buffer [300 mM NaCl, 50 mM Tris-HCl, pH 7.5, 0.5% Triton X-100, 1% sodium dodecyl sulfate (SDS), 1 mM dithiothreitol (DTT) (Invitrogen™), Roche®'s cOmplete™ protease inhibitor cocktail (1:000), 25 units/mL Benzonase®] and blotted at a protein concentration of 30 μg for EP300 and CBP and 10 μg for histone H3 and H3K27ac. Lysates were also blotted for bromodomain-containing protein 4 (BRD4). Lysates were resolved in NuPAGE™ 3-8% Tris-Acetate polyacrylamide gels (EA03785BOX, Invitrogen™) for EP300 and CBP and Bolt 4-12% Bis-Tris polyacrylamide gels (NW04125BOX, Invitrogen™) for H3 and H3K27ac. Afterwards, gels were transferred to nitrocellulose membranes (LC2001, Invitrogen™). […] Visualization was performed on an Odyssey infrared imaging system (LiCor® Biosciences).

CBP = CBP (Homo sapiens (Human), UniProt Q92793); test: Western blot for CBP degradation in Kelly NB cells; conditions: 8 and 16 hours, at 3 μM
CBP, sequence (Q92793 whole entry): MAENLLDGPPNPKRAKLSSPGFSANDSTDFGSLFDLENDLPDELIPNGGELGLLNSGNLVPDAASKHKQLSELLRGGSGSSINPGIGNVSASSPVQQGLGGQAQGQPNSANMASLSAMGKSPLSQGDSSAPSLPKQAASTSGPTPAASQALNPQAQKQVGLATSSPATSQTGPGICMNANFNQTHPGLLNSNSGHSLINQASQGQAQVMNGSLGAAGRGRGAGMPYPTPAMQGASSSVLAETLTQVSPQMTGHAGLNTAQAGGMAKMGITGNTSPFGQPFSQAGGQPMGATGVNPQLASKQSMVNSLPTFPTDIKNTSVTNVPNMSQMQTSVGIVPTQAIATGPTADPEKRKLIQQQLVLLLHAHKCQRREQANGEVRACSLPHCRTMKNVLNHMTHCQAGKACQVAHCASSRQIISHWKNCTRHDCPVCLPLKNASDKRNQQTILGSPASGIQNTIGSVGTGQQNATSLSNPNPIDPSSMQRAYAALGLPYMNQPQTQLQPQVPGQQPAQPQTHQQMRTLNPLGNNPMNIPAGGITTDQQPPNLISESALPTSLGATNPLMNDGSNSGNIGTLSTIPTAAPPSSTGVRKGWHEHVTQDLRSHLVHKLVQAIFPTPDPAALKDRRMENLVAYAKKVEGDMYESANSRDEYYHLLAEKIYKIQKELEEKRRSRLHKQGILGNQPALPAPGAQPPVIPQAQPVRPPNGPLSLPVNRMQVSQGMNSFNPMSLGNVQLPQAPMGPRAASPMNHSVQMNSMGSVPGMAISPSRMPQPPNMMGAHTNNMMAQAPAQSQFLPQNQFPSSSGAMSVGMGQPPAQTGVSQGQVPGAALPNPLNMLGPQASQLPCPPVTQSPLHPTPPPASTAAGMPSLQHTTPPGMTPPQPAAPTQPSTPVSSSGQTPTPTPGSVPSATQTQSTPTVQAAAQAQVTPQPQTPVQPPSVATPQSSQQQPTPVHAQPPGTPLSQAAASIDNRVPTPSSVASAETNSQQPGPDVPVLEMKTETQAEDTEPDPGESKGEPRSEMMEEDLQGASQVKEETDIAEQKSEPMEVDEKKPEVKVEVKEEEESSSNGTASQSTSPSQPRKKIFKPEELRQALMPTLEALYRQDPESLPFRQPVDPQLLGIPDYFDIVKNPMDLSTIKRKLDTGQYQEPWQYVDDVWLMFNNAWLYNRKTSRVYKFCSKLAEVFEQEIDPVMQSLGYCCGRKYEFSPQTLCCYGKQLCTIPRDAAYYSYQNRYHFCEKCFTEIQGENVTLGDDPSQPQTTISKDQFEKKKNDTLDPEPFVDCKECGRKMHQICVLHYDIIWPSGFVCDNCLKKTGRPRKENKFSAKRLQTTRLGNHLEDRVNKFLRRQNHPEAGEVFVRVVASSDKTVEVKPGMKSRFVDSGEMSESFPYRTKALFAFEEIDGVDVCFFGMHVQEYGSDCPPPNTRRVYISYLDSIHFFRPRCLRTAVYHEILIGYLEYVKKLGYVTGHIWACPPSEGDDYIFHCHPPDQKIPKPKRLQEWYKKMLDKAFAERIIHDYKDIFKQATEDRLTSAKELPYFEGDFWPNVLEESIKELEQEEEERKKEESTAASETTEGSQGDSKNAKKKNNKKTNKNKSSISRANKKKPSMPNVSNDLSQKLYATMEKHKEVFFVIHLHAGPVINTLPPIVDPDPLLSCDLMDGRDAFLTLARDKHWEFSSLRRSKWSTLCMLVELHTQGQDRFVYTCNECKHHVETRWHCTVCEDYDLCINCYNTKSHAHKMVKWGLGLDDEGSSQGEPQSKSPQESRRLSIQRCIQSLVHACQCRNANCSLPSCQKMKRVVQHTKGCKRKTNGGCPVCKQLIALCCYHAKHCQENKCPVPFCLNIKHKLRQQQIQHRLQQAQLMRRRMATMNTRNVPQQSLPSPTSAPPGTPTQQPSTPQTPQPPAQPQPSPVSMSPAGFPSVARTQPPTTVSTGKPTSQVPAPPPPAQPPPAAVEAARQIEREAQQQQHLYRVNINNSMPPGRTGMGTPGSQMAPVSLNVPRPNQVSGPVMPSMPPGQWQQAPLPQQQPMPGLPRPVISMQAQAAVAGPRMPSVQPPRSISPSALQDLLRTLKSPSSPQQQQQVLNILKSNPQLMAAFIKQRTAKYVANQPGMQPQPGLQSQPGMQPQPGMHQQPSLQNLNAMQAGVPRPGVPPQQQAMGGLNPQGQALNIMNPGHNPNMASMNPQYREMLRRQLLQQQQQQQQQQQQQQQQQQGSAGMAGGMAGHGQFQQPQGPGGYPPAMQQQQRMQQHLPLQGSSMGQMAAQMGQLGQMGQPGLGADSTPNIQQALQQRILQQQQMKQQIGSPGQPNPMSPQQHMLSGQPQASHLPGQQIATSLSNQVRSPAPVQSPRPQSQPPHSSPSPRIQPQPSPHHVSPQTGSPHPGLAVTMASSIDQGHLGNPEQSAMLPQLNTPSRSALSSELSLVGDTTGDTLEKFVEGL
Protocol: as §1

BRD2/3/4 = test: Western blot, selectivity against BRD2/3/4 in Kelly NB cells; conditions: 8 and 16 hours
Protocol: […] Whole cell lysates were collected using ice cold lysis buffer [300 mM NaCl, 50 mM Tris-HCl, pH 7.5, 0.5% Triton X-100, 1% sodium dodecyl sulfate (SDS), 1 mM dithiothreitol (DTT) (Invitrogen™), Roche®'s cOmplete™ protease inhibitor cocktail (1:000), 25 units/mL Benzonase®] and blotted at a protein concentration of 30 μg for EP300 and CBP and 10 μg for histone H3 and H3K27ac. Lysates were also blotted for bromodomain-containing protein 4 (BRD4). Lysates were resolved in NuPAGE™ 3-8% Tris-Acetate polyacrylamide gels (EA03785BOX, Invitrogen™) for EP300 and CBP and Bolt 4-12% Bis-Tris polyacrylamide gels (NW04125BOX, Invitrogen™) for H3 and H3K27ac. Afterwards, gels were transferred to nitrocellulose membranes (LC2001, Invitrogen™). Primary and secondary antibodies used included anti-p300 at 1:500 dilution (ab10485, Abcam®), anti-CBP at 1:500 dilution (D6C5, Cell Signaling Technology®), anti-Actin at 1:5000 dilution (3700S, Cell Signaling Technology®), anti-H3 at 1:1000 dilution (4499S, Cell Signaling Technology®), anti-H3K27ac at 1:1000 dilution (ab4729, Abcam®), IRDye®800 goat anti-rabbit at 1:5000 dilution (926-32211, LiCor® Biosciences) and IRDye®680 goat anti-mouse at 1:5000 dilution (926-68070, LiCor®). Visualization was performed on an Odyssey infrared imaging system (LiCor® Biosciences).

EP300, sequence (Q09472 whole entry): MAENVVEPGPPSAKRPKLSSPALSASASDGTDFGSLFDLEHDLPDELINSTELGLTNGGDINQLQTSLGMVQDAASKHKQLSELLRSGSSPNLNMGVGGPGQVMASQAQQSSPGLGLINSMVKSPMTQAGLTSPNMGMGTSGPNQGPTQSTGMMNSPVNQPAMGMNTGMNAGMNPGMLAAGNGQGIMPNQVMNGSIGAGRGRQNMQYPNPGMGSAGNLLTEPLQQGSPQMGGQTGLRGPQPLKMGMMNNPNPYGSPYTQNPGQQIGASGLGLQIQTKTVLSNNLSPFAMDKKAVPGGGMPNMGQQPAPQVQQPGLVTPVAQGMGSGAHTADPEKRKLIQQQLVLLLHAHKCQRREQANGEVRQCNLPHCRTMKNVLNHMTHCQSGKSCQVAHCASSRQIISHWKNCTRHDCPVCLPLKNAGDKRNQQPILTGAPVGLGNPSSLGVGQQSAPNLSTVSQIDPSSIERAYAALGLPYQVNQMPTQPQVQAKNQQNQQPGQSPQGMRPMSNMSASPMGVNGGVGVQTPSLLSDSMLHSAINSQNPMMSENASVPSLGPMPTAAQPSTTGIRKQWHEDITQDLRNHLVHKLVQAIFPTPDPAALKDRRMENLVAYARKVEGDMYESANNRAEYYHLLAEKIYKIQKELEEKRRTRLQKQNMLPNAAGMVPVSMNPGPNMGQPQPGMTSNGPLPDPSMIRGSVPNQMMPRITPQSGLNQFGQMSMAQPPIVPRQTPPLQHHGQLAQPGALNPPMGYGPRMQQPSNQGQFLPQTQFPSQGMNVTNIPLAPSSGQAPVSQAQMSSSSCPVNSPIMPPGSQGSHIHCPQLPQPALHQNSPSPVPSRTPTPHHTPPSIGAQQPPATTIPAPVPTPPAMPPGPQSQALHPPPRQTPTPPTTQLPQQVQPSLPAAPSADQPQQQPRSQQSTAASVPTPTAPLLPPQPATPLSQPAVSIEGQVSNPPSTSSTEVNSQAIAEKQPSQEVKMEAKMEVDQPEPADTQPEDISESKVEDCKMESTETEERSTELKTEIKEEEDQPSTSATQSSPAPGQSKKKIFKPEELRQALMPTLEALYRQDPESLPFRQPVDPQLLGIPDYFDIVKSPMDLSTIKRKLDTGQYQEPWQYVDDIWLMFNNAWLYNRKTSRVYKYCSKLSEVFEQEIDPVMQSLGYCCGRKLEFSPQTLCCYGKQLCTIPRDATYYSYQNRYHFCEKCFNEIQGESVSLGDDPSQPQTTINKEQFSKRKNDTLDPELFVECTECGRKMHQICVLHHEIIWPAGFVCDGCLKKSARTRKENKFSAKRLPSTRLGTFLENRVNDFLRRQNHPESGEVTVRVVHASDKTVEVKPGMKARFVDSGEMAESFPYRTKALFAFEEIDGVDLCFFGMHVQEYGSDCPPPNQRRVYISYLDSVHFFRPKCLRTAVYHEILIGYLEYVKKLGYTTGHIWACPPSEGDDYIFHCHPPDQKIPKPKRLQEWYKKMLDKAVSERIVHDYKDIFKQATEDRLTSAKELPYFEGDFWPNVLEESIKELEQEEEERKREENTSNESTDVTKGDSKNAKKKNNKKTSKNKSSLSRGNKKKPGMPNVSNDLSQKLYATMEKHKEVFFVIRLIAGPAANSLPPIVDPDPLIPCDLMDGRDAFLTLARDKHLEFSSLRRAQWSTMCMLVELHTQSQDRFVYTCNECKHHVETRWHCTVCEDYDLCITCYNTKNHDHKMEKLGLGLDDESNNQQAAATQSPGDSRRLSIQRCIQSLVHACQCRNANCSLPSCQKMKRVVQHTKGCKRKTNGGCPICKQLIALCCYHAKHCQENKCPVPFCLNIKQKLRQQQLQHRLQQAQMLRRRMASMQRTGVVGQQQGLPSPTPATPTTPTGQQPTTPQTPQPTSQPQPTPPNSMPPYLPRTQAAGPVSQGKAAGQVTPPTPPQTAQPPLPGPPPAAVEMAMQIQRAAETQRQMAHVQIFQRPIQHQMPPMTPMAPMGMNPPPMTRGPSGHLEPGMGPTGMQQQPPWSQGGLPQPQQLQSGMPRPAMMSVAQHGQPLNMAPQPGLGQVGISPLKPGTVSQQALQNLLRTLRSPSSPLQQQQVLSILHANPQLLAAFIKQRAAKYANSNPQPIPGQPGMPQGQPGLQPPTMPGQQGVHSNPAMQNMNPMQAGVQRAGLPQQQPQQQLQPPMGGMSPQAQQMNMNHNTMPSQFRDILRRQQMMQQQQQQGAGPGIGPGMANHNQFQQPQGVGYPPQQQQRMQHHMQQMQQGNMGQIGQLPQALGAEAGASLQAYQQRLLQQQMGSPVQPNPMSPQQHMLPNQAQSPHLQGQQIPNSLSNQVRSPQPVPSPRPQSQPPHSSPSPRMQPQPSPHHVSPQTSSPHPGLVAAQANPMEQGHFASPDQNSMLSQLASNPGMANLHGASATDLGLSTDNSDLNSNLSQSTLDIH

P300 degradation (immunoblot) (EP300): noticeable degradation | CBP degradation (immunoblot) (CBP): noticeable degradation
Structure (SMILES): C[C@@H]1CC(=O)Nc2cccc(-c3ccc4c(c3)c(-c3cnn(C(=O)CCCCCCCCCNc5cccc6c5C(=O)N(C5CCC(=O)NC5=O)C6=O)c3)nn4C)c2N1 (stereo partly drawn) [Compound 31, 2-(2,6-dioxopiperidin-3-yl)-4-((10-(4-(1-methyl-5-((R)-4-methyl-2-oxo-2,3,4,5-tetrahydro-1H-benzo[b][1,4]diazepin-6-yl)-1H-indazol-3-yl)-1H-pyrazol-1-yl)-10-oxodecyl)amino)isoindoline-1,3-dione]
selectivity of P300 and CBP degradation against BRD2/3/4 (BRD2/3/4): selective
